Laboratory results reported in patent publication US8637574B2, “Salts of 3-pentylphenylacetic acid and pharmaceutical uses thereof” (priority 2009, dated 2014).
Structures can show the parent of a compound that is named as a salt.

Experiments:
[1] = system: doxorubicin-induced nephrotoxicity model; experiment: Doxorubicin-induced nephrotoxicity model (serum albumin, serum creatinine, kidney histology); assay type: in vivo, mice
Protocol: C57BI/6 mice (6-10 week-old) were treated with Compound I prophylacticly from day −3 to day 10 or treated therapeutically from day 1 to 10. Nephrotoxicity was induced by an intravenous injection of 10 mg/kg of doxorubicin at day 0. Serum albumin and creatinine were monitored at days 4, 7, 9 and 11.

[2] = system: ⅚ nephrectomized (Nx) rat model; experiment: Kidney protection in ⅚ nephrectomized rat model (GFR, creatinine clearance); assay type: in vivo; conditions: Nx rats over treatment period; 50% deterioration in Nx control rats (FIG. 5)
Description: Male 6 week-old Wistar rats were subjected to ⅚ nephrectomy or sham operations. Under fluothane anesthesia, renal ablation was achieved by removing two-thirds of the left kidney followed by a right unilateral nephrectomy 7 days later. Sham rats underwent exposition of the kidneys and removal of the perirenal fat. Twenty-one days after the first operation, rats were randomized in the study by their reduced glomerular filtration rate (GFR) of creatinine indicating a dysfunction of the kidney. Animals that underwent the sham operation were given vehicle (saline) and were used as controls. Nx animals were divided in groups receiving the vehicle or Compound I. Saline or Compound I was given by gastric gavage once daily up to the sacrifice. GFR was measured every three weeks in order to assess the severity of this end-stage renal disease model. Rats were sacrificed at day 190.

[3] = Physical properties of the salt and the free acid (hygroscopicity, water solubility); assay type: physicochemical
[4] = system: RAW264.7 (macrophage-like) cells; experiment: Nitric oxide production in LPS/interferon-stimulated RAW264.7 cells (Griess reagent); assay type: cell-based; conditions: 1 μg/ml LPS and 0.5 ng/ml interferon, 16 hours, dose dependent
Protocol: The effect of Compound I on NO production was undertaken in RAW264.7 (macrophage-like) cells. RAW264.7 cells were cultured with 1 μg/ml of LPS and 0.5 ng/ml of interferon in presence or absence of the compound for 16 hours in a humidified atmosphere of 95% air-5% carbon dioxide at 37° C. Nitric oxide measurement in the culture medium was measured using the Griess reagent after an incubation of 30 minutes at room temperature. The absorbance at 548 nm was read and compared with standard solutions of NaNO2. Cell viability was assessed with the addition of 50 μl of […]. After an incubation of 4 hours, the medium was removed and 150 μl of DMSO was added to dissolve the crystals. The optical density of each sample was read at 570 nm against a blank prepared from cell-free wells.

PGE2 = experiment: LPS-induced inflammation in the rat air-pouch model (PGE2 in pouch exudates by ELISA); assay type: in vivo, rats; conditions: two hours after administration of LPS (FIG. 3)
Description: LPS-induced inflammation in the rat air-pouch model is believed to mimic the pathological process occurring in joint diseases such as arthritis. This is because the connective tissues formed along the air pouch are similar to those found in chronic joint diseases. LPS-induced inflammation and chronic joint diseases share other features, including markedly elevated PGE2, neutrophil infiltration, cytokine formation, and tissue damage. An air cavity was produced at day −6 by subcutaneous injection of 20 ml of sterile air into the intrascapular area of the back of male Lewis rats (175-200 g). An additional 10 ml of air was injected into the cavity at day −3 to keep the space open. At day 0, Compound I was administered intravenously and one hour later lipopolysaccharide (LPS: 2.5 ml, 2 μg/ml in PBS) was injected into the pouch to produce an inflammatory reaction. Two hours after treatment with LPS, animals were euthanized by CO2 asphyxiation and 5 ml of PBS/heparin (10 U/ml)/indomethacin (36 μg/ml) was injected into the pouch. The pouch fluid was collected and PGE2 was determined in the pouch exudates by ELISA.

COc1cccc2c1C(=O)c1c(O)c3c(c(O)c1C2=O)C[C@@](O)(C(=O)CO)C[C@@H]3O[C@H]1C[C@H](N)[C@H](O)[C@H](C)O1 [Doxorubicin, doxorubicin, reference compound]
kidney lesions induced by doxorubicin alone (histological score) ([1]; doxorubicin 10 mg/kg i.v. day 0, mice, day 7 and 11): significant kidney lesions

CCCCCc1cccc(CC(=O)O)c1 [Compound I, sodium salt of 3-pentylphenylacetic acid]
kidney lesions at the tubular level induced by doxorubicin (histological score) ([1]; prophylactic (pre-doxorubicin) and therapeutic (post-doxorubicin) treatments, mice (FIG. 9)): reduce the kidney lesions
protection of kidney against doxorubicin toxicity (histological micrographs) ([1]; prophylactic or therapeutic treatment, mice (FIG. 10)): protects kidney against doxorubicin toxicity
decrease of serum albumin induced by doxorubicin ([1]; prophylactic treatment day −3 to day 10, oral, mice (FIG. 7)): inhibits
increase of serum creatinine induced by doxorubicin ([1]; prophylactic treatment day −3 to day 10, oral, mice (FIG. 8)): inhibits
increase of serum creatinine level induced by doxorubicin ([1]; therapeutic treatment day 1 to 10, oral, mice (FIG. 8)): inhibits
improvement of GFR compared to the initial GFR (before treatment) at day 21 [2]: 50%
hygroscopicity [3]: not hygroscopic
water solubility [3]: very water soluble
inhibition of NO production [4]: about 50%

COc1ccc2c(c1)c(CC(=O)O)c(C)n2C(=O)c1ccc(Cl)cc1 [indomethacin]
inhibition of PGE2 (PGE2): inhibition
